Measured values as given in patent US7847064B2, “Methods and compositions for regulating gene expression in plant cells” (Donald Danforth Plant Science Center, priority 2004, dated 2010).
Entries after “also recorded” stand apart in the source; their conditions may differ.

Tests used:
Type in all cases: in vivo, Arabidopsis thaliana
VGE receptor [1] = experiment: Induction of RF2a expression in transgenic Arabidopsis (Western Blot); settings: 1:8000 dilution of Intrepid 2F; plants with E:GUS, 5G35Sm:RF2a, Cs:VGE
Source text: Induction of RF2a expression—RF2a expression was induced in the transgenic Arabidopsis plants described herein by application of a 1:8000 dilution of the pesticide Intrepid® 2F (Dow AgroSciences, Indianapolis, Ind.). The active ingredient in Intrepid® 2F pesticide is methoxyfenozide. […] Accordingly, the methoxyfenozide compound served as an expression-inducing ligand, which functioned to enhance expression of the RF2a-encoding sequence. Upon application of the methoxyfenozide compound, RF2a expression was induced, thereby allowing RF2a to interact with the Box II-containing E fragment, which was operably linked to the uidA sequence.
Western Blot analysis—To detect the expression of RF2a in select transgenic lines described above, either treated or untreated with Intrepid® 2F, 40 μg of protein of each sample was separated by 12% SDS-PAGE and blotted onto nitrocellulose membrane. The Arabidopsis lines analyzed by Western Blot included EGaV50, EGaV59, EGaV63, EGaV70, EGaV72, and E:GUS. Rabbit anti-RF2a antibodies were first applied to the nitrocellulose membrane, incubated, and washed. Next, anti-rabbit horseradish peroxidase-conjugated secondary antibodies were applied to the membrane, incubated, and washed. Finally, SuperSignal substrate (Pierce, Rockford, Ill.) was applied to the membrane, incubated, and washed.

VGE receptor [2] = experiment: Histochemical GUS staining of treated leaves of T1 transgenic Arabidopsis; settings: 67 T1 plants, 1:8000 dilution of Intrepid 2F on one leaf, two days, X-Gluc
Procedure: Analysis of GUS activity—The relative GUS activity in the transgenic Arabidopsis plants described herein was measured by histochemical analysis. In each of sixty-seven (67) T1 transgenic Arabidopsis plants carrying E:GUS, 5G35Sm:RF2a and Cs:VGE, the 1:8000 dilution of Intrepid® 2F described above was applied to one true leaf, while the other leaves in each plant remained untreated. Two-days following the application of the expression-inducing ligand, the treated leaf together with one untreated leaf from the same plant were detached and subjected to GUS staining.
More particularly, the plant leaf tissues mentioned above were submerged in stain solution containing 1 mM of X-Gluc in 100 mM sodium phosphate buffer (pH 7.0), 2 mM K3Fe(CN)6, 2 mM K4Fe(CN)6, 0.1% Triton X-100 and 20% methanol (Petruccelli et al. 2001). In order to evaluate GUS activity, several substrates are available. The most commonly used are 5-bromo-4-chloro-3-indolyl glucuronide (X-Gluc) and 4-methyl-umbelliferyl-glucuronide (MUG). […] For quantification purposes, MUG is preferred, because the umbelliferyl radical emits fluorescence under UV stimulation, thus providing better sensitivity and easy measurement by fluorometry. […]

VGE receptor [3] = experiment: Quantitative GUS activity (MUG) in T2 transgenic Arabidopsis; settings: twelve T2 lines, 1:8000 dilution of Intrepid 2F in hydroponic solution, three days
Procedure: Quantitative analysis of GUS activity in methoxyfenozide-treated plants was then conducted. T2 generation transgenic Arabidopsis plants from twelve T1 primary lines were selected on hygromycin selection medium. The lines are individually referred to herein as EGaV-3, EGaV-5, EGaV-17, EGaV-31, EGaV-50, EGaV-51, EGaV-56, EGaV-59, EGaV-63, EGaV-70, EGaV-72, and E:GUS. For each primary line, eighteen 14-day-old T2 plants were used. Nine plants, in three groups, were cultured in MS hydroponic solution containing a 1:8000 dilution of Intrepid 2F®. The remaining nine plants, in three groups, were left untreated and served as controls. After a three-day treatment period, the GUS activity in leaf tissue samples from each plant was quantified.
Each sample of leaf tissue was ground to a powder in liquid nitrogen. Total protein was extracted from each sample by adding 300 μl of extraction buffer. Protein concentration of each sample was quantified using a Dc Protein Assay Kit (Bio-Rad Laboratories, Hercules, Calif.). GUS activity of each sample was quantified using MUG as substrate and a fluorescence spectrometer (Molecular Devices, Sunnyvale, Calif.) (Petruccelli et al., 2001).

Which results are given for `COc1cccc(C(=O)NN(C(=O)c2cc(C)cc(C)c2)C(C)(C)C)c1C` [methoxyfenozide]?
RF2a expression (VGE receptor [1]): enhance RF2a expression; also recorded: presence of RF2a; plants with constitutive GUS expression pattern in treated leaves (VGE receptor [2]): approximately 70%; induction of GUS expression in relation to untreated control plants, average (VGE receptor [3]): 2.1 fold
